Data on three compounds can be found in PMC3810934 (Emerging Infectious Diseases, 2013).

Assay [1] deals with A/Anhui/1/2013 (E2/S1) virus isolate neuraminidase (Influenza A virus (A/Anhui/1/2013(H7N9)), UniProt A0A024E3Q2). The format is biochemical. The settings on record: pH 6.5.
The target is the same in assay [2]. The format is biochemical. The settings on record: pH 5.1.
The target in assay [3] is T1, Oseltamivir-sensitive A/Washington/01/2007 neuraminidase (Influenza A virus (H3N2), UniProt A7UPN3). It counts as biochemical. The settings on record: pH 6.5.
The target of assay [4] is T2, Oseltamivir-sensitive A/California/12/2012 neuraminidase (Influenza A virus (H1N1pdm09), UniProt R4SI91). It counts as biochemical. The settings on record: pH 6.5.
Assay [5] has as its target T1, Oseltamivir-sensitive A/Washington/01/2007 neuraminidase. Kind of assay: biochemical.
For assay [6], the target named is T2, Oseltamivir-sensitive A/California/12/2012 neuraminidase. It counts as biochemical. The settings on record: pH 5.1.
The next assay relates to A/Shanghai/1/2013 virus. The settings on record: cited from earlier work.

Like-named read-outs stand apart in the source and are kept apart here.

For orientation: IC50 means the concentration needed to halve the response being measured. As to `CO[C@@H]([C@@H]1OC(C(=O)O)=C[C@H](NC(=N)N)[C@H]1NC(C)=O)[C@H](O)CO` [Laninamivir, laninamivir], the IC50 in assay [1] was found to be 460 pM; in assay [2], 1290 pM.

For the compound `CCC(CC)[C@H](NC(C)=O)[C@@H]1[C@H](O)[C@@H](C(=O)O)C[C@H]1N=C(N)N` [Peramivir, peramivir], the IC50 worked out at 60 pM in assay [1] (read-out: IC50); 80 pM in assay [3]; 60 pM in assay [4]; 120 pM in assay [2] (read-out: IC50); 100 pM in assay [5] (pH 5.1, read-out: IC50); 70 pM in assay [6].

For the compound `CC(=O)N[C@H]1[C@H]([C@H](O)[C@H](O)CO)OC(C(=O)O)=C[C@@H]1N=C(N)N` [Zanamivir, zanamivir], the IC50 in assay [1] was found to be 330 pM; in assay [2], 1000 pM; in assay [5], 450 pM. Also, the “Susceptibility on the basis of NI assay data” value in the assay with A/Shanghai/1/2013 virus is on record as “susceptible”.
